The values that follow come from US20050276815A1, “Antiviral activity from medicinal mushrooms” (priority 2004, published 2005).

Test [1] relates to Vaccinia. The class given is cell-based.
Test [2] concerns Cowpox. The test is classed as cell-based.

Consider `Nc1ccn(C[C@@H](CO)OCP(=O)(O)O)c(=O)n1` [CDV], for which the PR CDV EC50 is 4.9 µg/mL in test [1] and 10.3 µg/mL in test [2].
